{"source": "patent US9049874B2", "about": "“Use of azaperone for reducing antibiotic usage” (Elanco Animal Health Ireland Limited, priority 2008, dated 2015)", "system": "weaned pigs", "experiment": "Preclinical study of the effects of azaperone administered via drinking water: therapeutic usage of antibiotics", "assay_type": "in vivo", "conditions": "for number of pigs treated (therapeutic use of antibiotics): 6 mg azaperone per liter drinking water for first 3 days", "procedure": "The study was performed in weaned pigs to investigate the effect of azaperone that was continuously orally administered via drinking water on postweaning diarrhoea and associated usage of antibiotics, behaviour, feed conversion, growth and homogeneity of growth. Groups of approximately 250 pigs were enrolled in the study starting from the moment they were weaned. The pigs were housed according to everyday farming conditions in a conventional pig farm. All pigs were housed in similar buildings. Each group was housed in 2 compartments, gilts and barrows were housed in separate compartments. Pigs were kept in pens of approximately 12 individuals each. After weaning, the piglets were housed in continuous artificial light for the first 48 hours. Afterwards, pigs were housed in continuous darkness for the further duration of the study, except during observations (twice a day). During the course of the study, pigs were not vaccinated. A metaphylactic colistine treatment via drinking water was applied in each group starting from the fifth day after weaning. Treatment continued for seven days. Pigs were fed ad libitum. Troughs were filled automatically with a computerized system that records the supplied weight of feed per pen. During the first ten days of the nursery period, pigs were fed a pelleted weaner feed which had also been available to the piglets in the farrowing unit. Between the 10th and 15th day at the nursery, the weaner feed was gradually replaced by grower pellets which have been given until the 35th day. Finally a switch was made between the 35th and the 40th day from grower pellets to starter pellets. Tap water was available during the whole period of the study and was supplied via a water nipple in the feeding trough. The drinking water comprising azaperone was obtained by diluting Stresnil™ injection in water to obtain a concentration of 6 mg azaperone per liter drinking water. A primary dilution was prepared by diluting 90 ml of Stresnil™ 4% injectable solution with tap water to obtain 6 liters of preparation. This primary dilution was linked for 24 hours with an automatic dosing system which continuously diluted the preparation in the drinking water at a rate of 1 to 100. One preparation of the primary dilution was sufficient to treat 600 liters of drinking water which exceeded the anticipated daily consumed volume of water by the pigs in one compartment. The two following days, a new primary dilution was made fresh each morning and linked to the automatic dosing system for 24 hours. This study was a controlled parallel study with 4 sequential groups of approximately 250 weaned pigs each. The first and third group were treated with azaperone via the drinking water for 3 consecutive days. The second and fourth group were control groups treated with placebo (plain drinking water). [table] On day one of the test period, water containing 6 mg azaperone per liter or placebo, was made available. Starting from the fourth day, the drinking water no longer contained azaperone. All pigs followed the normal procedures for further fattening. No pigs were brought to the slaughterhouse during the study (3 days dosing and 39 days follow-up). In order to assess the effect of the oral azaperone administration on the onset of postweaning diarrhoea and concomittant therapeutic usage of antibiotics, the occurrence of diarrhoea was followed in groups 1 to 4 and recorded daily by the Principal Investigator. All individual pens were checked by the Principal Investigator and a diarrhoea score was noted as follows: Any use of antibiotics in groups 1 to 4 was recorded the first three weeks after weaning and grouping of the animals. The decision to treat an animal with antibiotics was made by the Principal Investigator according to everyday practice on that farm.", "key": {"[1]": {"conditions": "during the nursery period, azaperone-treated group"}}, "data": [{"smiles": "O=C(CCCN1CCN(c2ccccn2)CC1)c1ccc(F)cc1", "note": "[azaperone]", "values": [{"measurement": "usage of antibiotics compared to placebo-treated groups", "setting": "6 mg/liter water during first three days of 42 day test period", "result": "significant reduction of the usage of antibiotics"}, {"measurement": "number of piglets treated with antibiotics (conclusion)", "setting": "6 mg/liter water during first three days of 42 day test period, vs. 29 in placebo", "result": 11}, {"measurement": "number of individual antibiotic treatments (conclusion)", "setting": "6 mg/liter water during first three days of 42 day test period, vs. 33 in placebo", "result": 13}, {"measurement": "number of ampicilline injections", "setting": "[1]", "result": 1}, {"measurement": "number of enrofloxacine injections", "setting": "[1]", "result": 4}, {"measurement": "number of oxytetracycline injections", "setting": "[1]", "result": 2}, {"measurement": "number of piglets treated with antibiotics for curative reasons", "setting": "[1]", "result": 7, "unit": "piglets"}, {"measurement": "total number of individual injections with antibiotics", "setting": "[1]", "result": 7, "unit": "injections"}, {"measurement": "number of pigs treated (therapeutic use of antibiotics)", "setting": "week 1 after weaning", "result": 4}, {"measurement": "number of pigs treated (therapeutic use of antibiotics)", "setting": "week 2 after weaning", "result": 3}, {"measurement": "number of pigs treated (therapeutic use of antibiotics)", "setting": "week 3 after weaning", "result": 0}]}]}
